Patent publication US4526890A, “3,6,7,8-Substituted-s-triazolo[4,3-b]pyridazines as bronchodilators” (The Dow Chemical Company, priority 1981, dated 1985)

Key:
[1] = system: histamine-induced bronchoconstriction; assay: Bronchodilator activity in the Konzett-Rossler guinea pig preparation (histamine-induced bronchoconstriction); assay type: in vivo; parameters: key to Histamine Blockade: % blockade = 100 − (post-dose response / mean of 3 prior) × 100; settings: for Histamine Blockade: table 7, intravenous, 3 mg/kg except as otherwise indicated, aminophylline 10 mg/kg
Experimental: Bronchodilator activity of representative triazolopyridazine compounds of the invention is examined in the Konzett-Rossler quinea pig preparation according to accepted procedures. See Knozett and Rossler; Arch. f. Exp. Path. u. Pharmakol. […] Int. Pharmacodyn. […] In this procedure an anesthetized guinea pig is artificially respired with a fixed volume of air. The volume of air is selected to slightly exceed the capacity of the guinea pig's lungs, and the excess air or "overflow" is measured. Test compounds are evaluated by administering a test compound intravenously 2 minutes prior to administration of an agonist compound (histamine, serotonin or acetylcholine) following 3 previous agonist doses resulting in relatively uniform (±10 percent) bronchoconstriction. […] This is calculated by dividing the "overflow" agonist response measured after administration of the test compound by the average of the 3 preceding agonist responses, multiplying by 100 and subtracting this value from 100 percent.

[2] = system: histamine-induced bronchoconstriction; settings: in words; cited from earlier work
mice [3] = settings: laboratory animals; in words; U.S. Pat. No. 4,136,182; cited from earlier work
[4] = 30 minute LD50 (acute toxicity without sound); settings: mouse, in vivo, ip
Experimental: (§1) The interaction of sound with the convulsive threshold of drugs is a known phenomenon which can be used to evaluate such side effects. […] In a procedure for pharmacological evaluation, the lowering of the convulsive threshold, or the lowering of the LD50, by sound can be studied in mice.
(§2) In the test operations, mice are administered a test compound by intraperitoneal injection at various dosages, and the number of mice showing tonic convulsions and the number of fatalities occurring within 30 minutes is recorded.

mice [5] = settings: laboratory animals; in words; U.S. Pat. No. 4,136,182; cited from earlier work; remark: listed apart in the source
[6] = Audiogenic convulsive side effects (sound challenge: tonic convulsions and fatalities); settings: mouse, ip
Experimental: as §1, §2
(§3) The sound exposure is carried out by placing the mice in a sound insulated cage with a bell which emits 120 decibels of sound, and activating the bell for two minutes. The number of tonic convulsions and fatalities are then recorded to determine the ED50 and LD50 in the presence of the sound challenge.

mice [7] = assay: in vivo; settings: mouse
Experimental: as §1, §2, §3

SMILES | Histamine Blockade [1] | effect on bronchoconstriction [2] | audiogenic convulsions (mice [3]) | LD50 at 0.5 h [4] [mg/kg] | LD50 (toxicity) (mice [5]) | LD50 ([6]; in vivo) [mg/kg] | TD50 ([6]; in vivo) [mg/kg] | percent blockade of histamine ([1]; 3 mg/kg intravenously, 2 minutes prior to histamine) [%] | audiogenic convulsive threshold / sound-induced toxicity (mice [7]) | TD50 [6] [mg/kg]
c1ccc(-c2nnc3ccc(N4CCOCC4)nn23)cc1 [6-morpholino-3-phenyl-s-triazolo[4,3-b]pyridazine, reference compound] | 22 | potent bronchodilator | produce audiogenic convulsions in laboratory animals at relatively low dosages | > 400 | high LD50 (low toxicity) | 30 | 5 |  |  | 
Cc1cc2nnc(C)n2nc1N1CCOCC1 [Example 2, 3,7-dimethyl-6-morpholino-s-triazolo[4,3-b]pyridazine] | 61 |  |  | 228 |  | 148 |  | 61 | much less reduction in convulsive threshold | 135
Cc1cc(-c2ccccc2)c2nnc(N3CCOCC3)n2n1 [6-methyl-3-(4-morpholinyl)-8-phenyl-s-triazolo[4,3-b]pyridazine] |  | potentiate bronchoconstriction |  |  |  |  |  |  |  | 
